Reference: ChEMBL document CHEMBL2021867, “Systematic Chemical Mutagenesis Identifies a Potent Novel Apratoxin A/E Hybrid with Improved in Vivo Antitumor Activity” (ACS Med Chem Lett, 2011)
The source made the active and inactive calls. The rule behind the calls is not given here.

Tests used:
[1] = target: Hepatocyte growth factor receptor (Homo sapiens) (UniProt P08581); experiment: Inhibition of Met expressed human HCT116 cells by immunoblotting assay; assay type: cell-based; conditions: HCT-116
Oryctolagus cuniculus [2] = species: Oryctolagus cuniculus; experiment: Inhibition of cotranslational processing of human PDGFRalpha in rabbit reticulocyte assessed as [35S-methionine] incorporation using canine pancreatic microsomal membranes by SDS-PAGE analysis; assay type: functional, microsomes; conditions: Microsome
HCT-116 = experiment: Antitumor activity against human HCT116 cells xenografted in nu/nu mouse model at 0.25 mg/kg, ip dosed daily for over 2 weeks; assay type: functional, organism-based; set-up: dose 0.25 mg/kg
Mus musculus [3] = experiment: Toxicity in human HCT116 cells xenografted nu/nu mouse assessed as body weight loss at > 0.375 mg/kg, ip; assay type: organism-based, HCT-116; set-up: dose 0.375 mg/kg, route intraperitoneal; conditions: in vivo
Mus musculus [4] = experiment: Toxicity in human HCT116 cells xenografted nu/nu mouse assessed as mortality at > 0.375 mg/kg, ip; assay type: organism-based, HCT-116; set-up: dose 0.375 mg/kg, route intraperitoneal; conditions: in vivo
Oryctolagus cuniculus [5] = species: Oryctolagus cuniculus; experiment: Inhibition of cotranslational processing of in rabbit reticulocyte assessed as [35S-methionine] incorporation using canine pancreatic microsomal membranes by SDS-PAGE analysis; assay type: functional, microsomes; conditions: Microsome
Mus musculus [6] = experiment: Irreversible toxicity in human HCT116 cells xenografted nu/nu mouse at > 0.375 mg/kg, ip measured post compound withdrawal; assay type: organism-based, HCT-116; set-up: dose 0.375 mg/kg, route intraperitoneal; conditions: in vivo
Mus musculus [7] = experiment: Toxicity in human HCT116 cells xenografted nu/nu mouse assessed as body weight loss at > 0.375 mg/kg, ip measured post compound withdrawal; assay type: organism-based, HCT-116; set-up: dose 0.375 mg/kg, route intraperitoneal; conditions: in vivo
Mus musculus [8] = experiment: Toxicity in human HCT116 cells xenografted nu/nu mouse assessed as mortality at > 0.375 mg/kg, ip measured post compound withdrawal; assay type: organism-based, HCT-116; set-up: dose 0.375 mg/kg, route intraperitoneal; conditions: in vivo
Mus musculus [9] = experiment: Toxicity in human HCT116 cells xenografted nu/nu mouse assessed as weight loss at 0.25 mg/kg, ip dosed daily for over 2 weeks; assay type: organism-based, HCT-116; set-up: dose 0.25 mg/kg, route intraperitoneal; conditions: in vivo, 336 h
Mus musculus [10] = experiment: Toxicity in human HCT116 cells xenografted nu/nu mouse assessed as kidney histology changes at 0.25 mg/kg, ip dosed daily for over 2 weeks; assay type: organism-based, HCT-116; set-up: dose 0.25 mg/kg, route intraperitoneal; conditions: in vivo, 336 h
Mus musculus [11] = experiment: Toxicity in human HCT116 cells xenografted nu/nu mouse assessed as liver histology changes at 0.25 mg/kg, ip dosed daily for over 2 weeks; assay type: organism-based, HCT-116; set-up: dose 0.25 mg/kg, route intraperitoneal; conditions: in vivo, 336 h
Mus musculus [12] = experiment: Reduction in PDGFRbeta level in tumor of human HCT116 cells xenografted in nu/nu mouse at 0.25 mg/kg, ip dosed daily for over 2 weeks by Western blot; assay type: functional, organism-based; set-up: dose 0.25 mg/kg; conditions: HCT-116
Mus musculus [13] = experiment: Reduction in VEGFR2 level in tumor of human HCT116 cells xenografted in nu/nu mouse at 0.25 mg/kg, ip dosed daily for over 2 weeks by Western blot; assay type: functional, organism-based; set-up: dose 0.25 mg/kg; conditions: HCT-116
Mus musculus [14] = experiment: Reduction in VEGFR2 level in liver of human HCT116 cells xenografted in nu/nu mouse at 0.25 mg/kg, ip dosed daily for over 2 weeks by Western blot; assay type: functional, organism-based; set-up: dose 0.25 mg/kg; conditions: HCT-116

Chain of Hepatocyte growth factor receptor (Homo sapiens) (P08581 whole entry): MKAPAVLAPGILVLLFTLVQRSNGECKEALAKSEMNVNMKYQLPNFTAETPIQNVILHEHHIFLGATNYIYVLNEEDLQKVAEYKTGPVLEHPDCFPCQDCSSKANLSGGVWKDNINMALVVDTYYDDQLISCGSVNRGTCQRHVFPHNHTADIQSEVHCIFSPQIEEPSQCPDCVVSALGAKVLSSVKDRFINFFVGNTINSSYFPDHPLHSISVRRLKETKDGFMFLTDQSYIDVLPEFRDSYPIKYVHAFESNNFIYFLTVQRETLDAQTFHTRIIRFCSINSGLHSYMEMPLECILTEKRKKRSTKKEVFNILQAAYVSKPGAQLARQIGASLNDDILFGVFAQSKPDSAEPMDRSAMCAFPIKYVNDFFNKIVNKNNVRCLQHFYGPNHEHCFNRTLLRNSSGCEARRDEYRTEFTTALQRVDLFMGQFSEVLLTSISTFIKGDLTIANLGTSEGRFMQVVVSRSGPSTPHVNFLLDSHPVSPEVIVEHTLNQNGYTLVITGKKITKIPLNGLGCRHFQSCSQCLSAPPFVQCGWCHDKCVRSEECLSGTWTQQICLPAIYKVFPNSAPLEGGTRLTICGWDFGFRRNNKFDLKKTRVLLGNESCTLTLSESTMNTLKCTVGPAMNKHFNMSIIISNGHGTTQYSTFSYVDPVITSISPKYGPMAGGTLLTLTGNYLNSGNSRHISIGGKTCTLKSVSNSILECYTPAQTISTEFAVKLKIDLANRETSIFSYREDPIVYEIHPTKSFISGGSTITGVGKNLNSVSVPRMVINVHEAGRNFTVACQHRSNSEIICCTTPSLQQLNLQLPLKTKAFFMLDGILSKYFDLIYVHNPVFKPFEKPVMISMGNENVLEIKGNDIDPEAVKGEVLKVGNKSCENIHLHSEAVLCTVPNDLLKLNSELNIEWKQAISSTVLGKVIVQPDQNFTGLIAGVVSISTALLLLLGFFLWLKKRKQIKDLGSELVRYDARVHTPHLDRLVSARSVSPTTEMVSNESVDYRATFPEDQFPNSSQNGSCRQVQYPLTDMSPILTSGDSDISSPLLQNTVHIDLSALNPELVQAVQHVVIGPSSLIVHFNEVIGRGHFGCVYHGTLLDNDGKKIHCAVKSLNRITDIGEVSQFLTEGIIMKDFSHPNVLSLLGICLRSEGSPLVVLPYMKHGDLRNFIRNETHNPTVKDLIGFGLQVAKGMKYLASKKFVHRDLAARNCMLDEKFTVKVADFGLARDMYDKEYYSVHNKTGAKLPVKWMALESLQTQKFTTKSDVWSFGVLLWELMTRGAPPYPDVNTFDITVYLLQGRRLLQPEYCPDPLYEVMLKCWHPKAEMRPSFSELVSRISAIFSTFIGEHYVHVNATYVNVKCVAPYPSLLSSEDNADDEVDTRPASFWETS

For `CC[C@H](C)[C@H]1C(=O)N(C)[C@@H](C)C(=O)O[C@H](C(C)(C)C)C[C@@H](C)C[C@H](O)[C@H](C)C2=N[C@@H](/C=C(\C)C(=O)N[C@@H](Cc3ccc(OC)cc3)C(=O)N(C)[C@@H](C)C(=O)N1C)CS2`, the inhibition [1] was “Active”.

`CC[C@H](C)[C@H]1C(=O)N2CCC[C@H]2C(=O)O[C@H](C(C)(C)C)C[C@@H](C)C[C@H](O)[C@H](C)C2=N[C@@H](/C=C(\C)C(=O)N[C@@H](C)C(=O)N(C)[C@@H](C)C(=O)N1C)CS2` was tested, and the inhibition [1] was “inactive”.

For `COc1ccc(C[C@@H]2NC(=O)/C(C)=C/[C@H]3CSC(=N3)[C@@H](C)[C@@H](O)C[C@H](C)C[C@@H](C(C)(C)C)OC(=O)[C@@H]3CCCN3C(=O)[C@H](C)N(C)C(=O)[C@H](C)N(C)C2=O)cc1`, the inhibition [1] was “inactive”.

With `CC[C@H](C)[C@H]1C(=O)N2CCC[C@H]2C(=O)O[C@H](C(C)(C)C)C[C@@H](C)C[C@H](O)[C@H](C)C2=N[C@@H](CCC(=O)N[C@@H](Cc3ccc(OC)cc3)C(=O)N(C)[C@@H](C)C(=O)N1C)CS2` [APRATOXIN S4] the inhibition (Oryctolagus cuniculus [2]) was “Active”, the Activity (HCT-116) was “Active” and the Activity (Mus musculus [3]) was “Non-toxic”. For the same molecule, the Activity (Mus musculus [4]) was “Non-toxic”, the inhibition (Oryctolagus cuniculus [5]) was “Dose-dependent effect” and the Activity (Mus musculus [6]) was “Non-toxic”. The Activity (Mus musculus [7]) was “Non-toxic”, the Activity (Mus musculus [8]) was “Non-toxic” and the Activity (Mus musculus [9]) was “Non-toxic”. The Activity (Mus musculus [10]) was “Non-toxic”, the Activity (Mus musculus [11]) was “Non-toxic” and the Activity (Mus musculus [12]) was “Active”. The Activity (Mus musculus [13]) was “Active” and the Activity (Mus musculus [14]) was “inactive”.
